Assay results as given in ChEMBL document CHEMBL3885881, “DrugMatrix”.

Organism: Rattus norvegicus
Experiment: DrugMatrix - Regimen: Daily Repeat
Type: toxicity, organism-based, Sprague-Dawley
Design: regimen Daily Repeat, gender Male, age 6-8 weeks
Conditions: in vivo, sc, 0 mg/kg, route mini-PUMP - SUBCUTANEOUS, dose level Control, vehicle 100 % SALINE; for ABSOLUTE BASOPHIL / ABSOLUTE EOSINOPHIL / ABSOLUTE LYMPHOCYTE / ABSOLUTE MONOCYTE / ABSOLUTE SEGMENTED NEUTROPHIL / BASOPHIL / EOSINOPHIL / ERYTHROCYTE COUNT / HEMATOCRIT / HEMOGLOBIN / LEUKOCYTE COUNT / LYMPHOCYTE / MEAN CORPUSCULAR HEMOGLOBIN / MEAN CORPUSCULAR HEMOGLOBIN CONCENTRATION / MEAN CORPUSCULAR VOLUME / MONOCYTE / NEUTROPHIL / NUCLEATED RED BLOOD CELLS / PLATELET COUNT: tissue Blood; for ALANINE AMINOTRANSFERASE / ALBUMIN / ALKALINE PHOSPHATASE / ASPARTATE AMINOTRANSFERASE / BLOOD UREA NITROGEN / CARBON DIOXIDE / CHLORIDE / CHOLESTEROL / CREATININE / GLUCOSE / LACTATE DEHYDROGENASE / LIPASE / PHOSPHORUS / POTASSIUM / SODIUM / TOTAL BILIRUBIN / TOTAL PROTEIN / URIC ACID: tissue Plasma

NC[C@H](O)c1ccc(O)c(O)c1 [NOREPINEPHRINE]
ABSOLUTE BASOPHIL (72 h, time 3 day): 0 CELLS/uL | ABSOLUTE EOSINOPHIL (72 h, time 3 day): 77.17 CELLS/uL | ABSOLUTE LYMPHOCYTE (72 h, time 3 day): 14293.83 CELLS/uL | ABSOLUTE MONOCYTE (72 h, time 3 day): 354 CELLS/uL | ABSOLUTE SEGMENTED NEUTROPHIL (72 h, time 3 day): 1658.33 CELLS/uL | BASOPHIL (72 h, time 3 day): 0% | EOSINOPHIL (72 h, time 3 day): 0.5% | ERYTHROCYTE COUNT (72 h, time 3 day): 6.27 x10E6/uL | HEMATOCRIT (72 h, time 3 day): 36.95% | HEMOGLOBIN (72 h, time 3 day): 13.4 G/DL | LEUKOCYTE COUNT (72 h, time 3 day): 16.38 x10E3/uL | LYMPHOCYTE (72 h, time 3 day): 87.17% | MEAN CORPUSCULAR HEMOGLOBIN (72 h, time 3 day): 21.42 pg | MEAN CORPUSCULAR HEMOGLOBIN CONCENTRATION (72 h, time 3 day): 36.27 G/DL | MEAN CORPUSCULAR VOLUME (72 h, time 3 day): 59.03 fL | MONOCYTE (72 h, time 3 day): 2% | NEUTROPHIL (72 h, time 3 day): 10.33% | NUCLEATED RED BLOOD CELLS (72 h, time 3 day): 0 /100WBC | PLATELET COUNT (72 h, time 3 day): 904.67 x10E3/uL | ALANINE AMINOTRANSFERASE (72 h, time 3 day): 48.33 u/L | ALBUMIN (72 h, time 3 day): 3.82 G/DL | ALKALINE PHOSPHATASE (72 h, time 3 day): 282.33 u/L | ASPARTATE AMINOTRANSFERASE (72 h, time 3 day): 86.83 u/L | BLOOD UREA NITROGEN (72 h, time 3 day): 20.17 mg/dL | CARBON DIOXIDE (72 h, time 3 day): 34.67 mmol/L | CHLORIDE (72 h, time 3 day): 102 MEQ/L | CHOLESTEROL (72 h, time 3 day): 71.5 mg/dL | CREATININE (72 h, time 3 day): 0.2 mg/dL | GLUCOSE (72 h, time 3 day): 136.83 mg/dL | LACTATE DEHYDROGENASE (72 h, time 3 day): 159 u/L | LIPASE (72 h, time 3 day): 9 u/L | PHOSPHORUS (72 h, time 3 day): 10.12 mg/dL | POTASSIUM (72 h, time 3 day): 5.92 MEQ/L | SODIUM (72 h, time 3 day): 147.8 MEQ/L | TOTAL BILIRUBIN (72 h, time 3 day): 0.2 mg/dL | TOTAL PROTEIN (72 h, time 3 day): 6.05 G/DL | URIC ACID (72 h, time 3 day): 1.4 mg/dL | ABSOLUTE BASOPHIL (120 h, time 5 day): 0 CELLS/uL | ABSOLUTE EOSINOPHIL (120 h, time 5 day): 0 CELLS/uL | ABSOLUTE LYMPHOCYTE (120 h, time 5 day): 14257.33 CELLS/uL | ABSOLUTE MONOCYTE (120 h, time 5 day): 326 CELLS/uL | ABSOLUTE SEGMENTED NEUTROPHIL (120 h, time 5 day): 3216.67 CELLS/uL | BASOPHIL (120 h, time 5 day): 0% | EOSINOPHIL (120 h, time 5 day): 0% | ERYTHROCYTE COUNT (120 h, time 5 day): 6.11 x10E6/uL | HEMATOCRIT (120 h, time 5 day): 36.22% | HEMOGLOBIN (120 h, time 5 day): 13.18 G/DL | LEUKOCYTE COUNT (120 h, time 5 day): 17.8 x10E3/uL | LYMPHOCYTE (120 h, time 5 day): 80.5% | MEAN CORPUSCULAR HEMOGLOBIN (120 h, time 5 day): 21.62 pg | MEAN CORPUSCULAR HEMOGLOBIN CONCENTRATION (120 h, time 5 day): 36.42 G/DL | MEAN CORPUSCULAR VOLUME (120 h, time 5 day): 59.37 fL | MONOCYTE (120 h, time 5 day): 1.83% | NEUTROPHIL (120 h, time 5 day): 17.67% | NUCLEATED RED BLOOD CELLS (120 h, time 5 day): 0 /100WBC | PLATELET COUNT (120 h, time 5 day): 1311 x10E3/uL | ALANINE AMINOTRANSFERASE (120 h, time 5 day): 47 u/L | ALBUMIN (120 h, time 5 day): 3.83 G/DL | ALKALINE PHOSPHATASE (120 h, time 5 day): 260.33 u/L | ASPARTATE AMINOTRANSFERASE (120 h, time 5 day): 76.17 u/L | BLOOD UREA NITROGEN (120 h, time 5 day): 14.67 mg/dL | CARBON DIOXIDE (120 h, time 5 day): 31.33 mmol/L | CHLORIDE (120 h, time 5 day): 101.17 MEQ/L | CHOLESTEROL (120 h, time 5 day): 75 mg/dL | CREATININE (120 h, time 5 day): 0.16 mg/dL | GLUCOSE (120 h, time 5 day): 152.67 mg/dL | LACTATE DEHYDROGENASE (120 h, time 5 day): 147.33 u/L | LIPASE (120 h, time 5 day): 9.33 u/L | PHOSPHORUS (120 h, time 5 day): 10.97 mg/dL | POTASSIUM (120 h, time 5 day): 6 MEQ/L | SODIUM (120 h, time 5 day): 145.52 MEQ/L | TOTAL BILIRUBIN (120 h, time 5 day): 0.17 mg/dL | TOTAL PROTEIN (120 h, time 5 day): 5.83 G/DL | URIC ACID (120 h, time 5 day): 1.27 mg/dL | ABSOLUTE BASOPHIL ([…], time 14 day): 0 CELLS/uL | ABSOLUTE EOSINOPHIL ([…], time 14 day): 64.5 CELLS/uL | ABSOLUTE LYMPHOCYTE ([…], time 14 day): 12507.83 CELLS/uL | ABSOLUTE MONOCYTE ([…], time 14 day): 380.33 CELLS/uL | ABSOLUTE SEGMENTED NEUTROPHIL ([…], time 14 day): 2414 CELLS/uL | BASOPHIL ([…], time 14 day): 0% | EOSINOPHIL ([…], time 14 day): 0.5% | ERYTHROCYTE COUNT ([…], time 14 day): 6.1 x10E6/uL | HEMATOCRIT ([…], time 14 day): 35.4% | HEMOGLOBIN ([…], time 14 day): 12.88 G/DL | LEUKOCYTE COUNT ([…], time 14 day): 15.37 x10E3/uL | LYMPHOCYTE ([…], time 14 day): 80.83% | MEAN CORPUSCULAR HEMOGLOBIN ([…], time 14 day): 21.18 pg | MEAN CORPUSCULAR HEMOGLOBIN CONCENTRATION ([…], time 14 day): 36.43 G/DL | MEAN CORPUSCULAR VOLUME ([…], time 14 day): 58.17 fL | MONOCYTE ([…], time 14 day): 2.17% | NEUTROPHIL ([…], time 14 day): 16.5% | NUCLEATED RED BLOOD CELLS ([…], time 14 day): 0.17 /100WBC | PLATELET COUNT ([…], time 14 day): 1016 x10E3/uL | ALANINE AMINOTRANSFERASE ([…], time 14 day): 53.33 u/L | ALBUMIN ([…], time 14 day): 3.93 G/DL | ALKALINE PHOSPHATASE ([…], time 14 day): 319.83 u/L | ASPARTATE AMINOTRANSFERASE ([…], time 14 day): 84 u/L | BLOOD UREA NITROGEN ([…], time 14 day): 15.5 mg/dL | CARBON DIOXIDE ([…], time 14 day): 34 mmol/L | CHLORIDE ([…], time 14 day): 101.83 MEQ/L | CHOLESTEROL ([…], time 14 day): 57 mg/dL | CREATININE ([…], time 14 day): 0.21 mg/dL | GLUCOSE ([…], time 14 day): 182.33 mg/dL | LACTATE DEHYDROGENASE ([…], time 14 day): 104.67 u/L | LIPASE ([…], time 14 day): 9.17 u/L | PHOSPHORUS ([…], time 14 day): 11.12 mg/dL | POTASSIUM ([…], time 14 day): 5.81 MEQ/L | SODIUM ([…], time 14 day): 144.85 MEQ/L | TOTAL BILIRUBIN ([…], time 14 day): 0.18 mg/dL | TOTAL PROTEIN ([…], time 14 day): 5.92 G/DL | URIC ACID ([…], time 14 day): 1.38 mg/dL
